A short description of data set [1]: Stopped-flow kinetic analysis of catalytic dismutation of superoxide. In kind it is biochemical. Conditions: catalytic rate constant for dismutation of superoxide, pH 8.1 and 21°C. The source says: Stopped-flow kinetic analysis is an accurate and direct method for quantitatively monitoring the decay rates of superoxide in water.
For the attainment of consistent and accurate measurements all reagents were biologically clean and metal-free. To achieve this, all buffers (Calbiochem) were biological grade, metal-free buffers and were handled with utensils which had been washed first with 0.1 N HCl, followed by purified water, followed by a rinse in a 10^-4 M EDTA bath at pH 8, followed by a rinse with purified water and dried at 65°C for several hours. Dry DMSO solutions of potassium superoxide (Aldrich) were prepared under a dry, inert atmosphere of argon in a Vacuum Atmospheres dry glovebox using dried glassware. The DMSO solutions were prepared immediately before every stopped-flow experiment. A mortar and pestle were used to grind the yellow solid potassium superoxide (~100 mg). The powder was then ground with a few drops of DMSO and the slurry transferred to a flask containing an additional 25 ml of DMSO. The resultant slurry was stirred for 1/2 h and then filtered. […] These solutions were transferred to a glovebag under nitrogen in sealed vials prior to loading the syringe under nitrogen. It should be noted that the DMSO/superoxide solutions are extremely sensitive to water, heat, air, and extraneous metals. A fresh, pure solution has a very slight yellowish tint.
Water for buffer solutions was delivered from an in-house deionized water system to a Barnstead Nanopure Ultrapure Series 550 water system and then double distilled, first from alkaline potassium permanganate and then from a dilute EDTA solution. For example, a solution containing 1.0 g of potassium permanganate, 2 liters of water and additional sodium hydroxide necessary to bring the pH to 9.0 were added to a […] fitted with a solvent distillation head. This distillation will oxidize any trace of organic compounds in the water. The final distillation was carried out under nitrogen in a 2.5-liter flask containing 1500 ml of water from the first still and 1.0 x 10^-6M EDTA. This step will remove remaining trace metals from the ultrapure water. To prevent EDTA mist from volatilizing over the reflux arm to the still head, the 40-cm vertical arm was packed with glass beads and wrapped with insulation. This system produces deoxygenated water that can be measured to have a conductivity of less than 2.0 nanomhos/cm^2.
The stopped-flow spectrometer system was designed and manufactured by Kinetic Instruments Inc. (Ann Arbor, MI) and was interfaced to a MAC IICX personal computer. The software for the stopped-flow analysis was provided by Kinetics Instrument Inc. and was written in QuickBasic with MacAdios drivers. Typical injector volumes (0.10 ml of buffer and 0.006 ml of DMSO) were calibrated so that a large excess of water over the DMSO solution were mixed together. […] Aqueous solutions to be mixed with the DMSO solution of superoxide were prepared using 80 mM concentrations of the Hepes buffer, pH 8.1 (free acid + Na form). One of the reservoir syringes was filled with 5 ml of the DMSO solution while the other was filled with 5 ml of the aqueous buffer solution. The entire injection block, mixer, and spectrometer cell were immersed in a thermostatted circulating water bath with a temperature of 21.0 ± 0.5°C.
Prior to initiating data collection for a superoxide decay, a baseline average was obtained by injecting several shots of the buffer and DMSO solutions into the mixing chamber. These shots were averaged and stored as the baseline.

Data set [2] relates to colonic myeloperoxidase activity. The data set can be described thus: Mouse acetic acid-induced colitis model (colonic myeloperoxidase). The format is in vivo. Conditions: 30 mg/kg dose, intracolonic, 30 minutes before acetic acid, tissue after 24 hours. As for the experimental part: Mouse colitis model. […] Mice were lightly anesthetized. A solution of 3% (v/v) aqueous acetic acid was instilled intracolonically via a flexible polyethylene tube. After 24 hours, the animals were killed and colonic tissue samples were obtained. Tissue samples were assessed biochemically for the neutrophil marker enzyme, myeloperoxidase (MPO). The colonic tissue samples were minced, homogenized in detergent, and sonicated. After centrifugation, enzyme activities were assayed spectrophotometrically by determining the decomposition of peroxide using o-dianisidine as the hydrogen donor. Data was obtained as the absorbance (460 nm) at 20 minutes. Test agents were given intracolonically at a dose of 30 mg/kg body weight 30 minutes before acetic acid instillation as a sonicated suspension in 0.5% aqueous methyl cellulose. Vehicle was given to appropriate acetic acid control animals. Normal tissue was obtained from control animals which received only vehicle. Colonic myeloperoxidase activities were determined as units/g wet weight of tissue. Reduction of colonic myeloperoxidase activity by test agents in acetic acid-treated mice is expressed as % inhibition (Table 2). Colonic myeloperoxidase activity correlated with the degree of tissue inflammation as assessed by visual and histological analysis.

The subject of data set [3] is human aortic endothelial cells (HAE cells).
Source text: (§1) Human peripheral blood neutrophils were isolated from fresh venous blood of healthy volunteers. EDTA anticoagulated blood was separated using a single step density centrifugation (Polymorphprep; Nycomed Pharma, Oslo, Norway) followed by several washes in Hank's balanced salt solution supplemented with 0.5% BSA (Bovine Serum Albumin) (HBSSB) and the hypertonic lysis of erythrocytes. Neutrophils were counted via Coulter electronic particle counter and resuspended in HBSSB supplemented with 25% Endothelial Basal Medium (EBM), (Clonetics Corporation, San Diego, CA) at a concentration of 5 x 10^6 polymorphonuclear leukocytes (PMN)/ml.
(§2) The cytotoxic effects of stimulated neutrophils on endothelial cells were determined using a ^51Cr-release assay as previously described (Moldow, C.F., and Jacob, H.S. (1984) Methods Enzymol. 105, 378-385). Confluent monolayers of human aortic endothelial cells (HAE cells; Clonetics) grown in 96-well culture plates were prelabeled with 1 µCi/well ^51Cr (Na2 ^51Cr2O4, New England Nuclear, Boston, MA). The cells were incubated for 18 h at 37°C, then cytokine-activated with 10 Units/well human recombinant tumor necrosis factor-a (hrTNF-α; Monsanto Company, St. Louis, MO) for 4 h at 37°C. The cells were washed twice to remove unincorporated radioactivity with Hank's balanced salt solution supplemented with 0.5% BSA. To assess inhibition of PMN-mediated cytotoxicity, manganese(II) complexes at various doses (0-300 µM) were added to five replicate wells/dose of HAE cells immediately prior to the addition of PMN. Suspensions of PMN in HBSSB supplemented with 25% Endothelial Basal Medium were added to the wells at a neutrophil to endothelial cell ratio of 50:1. The PMN were allowed to adhere for 15 minutes at 37°C, primed with 125 Units/well hrTNF-α (Berkow, R.L., Wang, D., Larrick, J.W., Dodson, R.W., and Howard, T.H. (1987) J. Immunol. 139, 3783-3791; Varani, J.; Bendelow, M. J. Sealey, D. E.; Kunkel, S. L.; Gannon, D. E.; Ryan, U.S.; and Ward, P.A. (1987) Lab. Invest., 59, 292-295) for 10 minutes, and stimulated with human recombinant complement component C5a (Sigma Chemical, St. Louis, MO). […] After an additional incubation of 4 hours at 37°C, 200 µl of the 250 µl reaction volume (soluble fraction) was removed to a tube for counting. The cells were washed twice with 200 µl HBSSB (nonadherent fraction) and the washes pooled with the soluble fraction. The adherent fraction was collected by lysing the HAE cells with 200 µl 1N NaOH for 30 minutes and removing to separate tubes. Both fractions were analyzed by gamma scintillation spectrometry. The percentage cytotoxicity was calculated by the following formula: % Cytotoxicity =(cpm (soluble + nonadherent fractions))/(cpm (soluble + nonadherent + adherent fractions))x 100 [formula] Specific cytotoxicity reflects the difference between ^51Cr-release induced by stimulated PMN and unstimulated PMN. The IC50 values for the manganese(II) complexes for protection against neutrophil-mediated cytotoxicity were determined from a computer-driven logistic regression equation from a plot of % specific cytotoxicity versus the concentration of the manganese(II) complex.
Data set [4] has the same test system. The data set can be described thus: Neutrophil-mediated cytotoxicity assay (51Cr-release). Conditions: 50% inhibition of specific cytotoxicity; human neutrophil-mediated killing of human aortic endothelial cells.
Source text: as §1, §2

Turning to `CC1CNCCNCCNCCNCCN1.[Cl-].[Cl-].[Mn+2]` (stereo not shown) [Example 2, [Manganese(II)dichloro(2-Methyl-1,4,7,10,13-pentaazacyclopentadecane)]], the kCAT in data set [1] amounted to 2.67e+07 M⁻¹ s⁻¹. For the same molecule, the “% Inhibition of Colonic Myeloperoxidase Activity” value (“% Inhibition” below) in data set [2] is listed as 47%. Also, the “protection against human neutrophil-mediated cytotoxicity, in words” value (“protection” for short) in data set [3] is reported as “protective against human neutrophil-mediated cytotoxicity”.
As for `C[C@@H]1CNCCNCCNCCNCCN1.[Cl-].[Cl-].[Mn+2]` [Example 4, [Manganese(II)dichloro((R)-2-Methyl-1,4,7,10,13-pentaazacyclopentadecane)]], the “protection” value in data set [3] was “protective against human neutrophil-mediated cytotoxicity”.
`CC(C)CC1CNCCNCCNCCNCCN1.[Cl-].[Cl-].[Mn+2]` (stereo not shown) [Example 5, [Manganese(II)dichloro(2-(2-Methylpropyl)-1,4,7,10,13-pentaazacyclopentadecane)]]: the “% Inhibition” value in data set [2] was found to be 70%. Also, the “protection” value in data set [3] is “protective against human neutrophil-mediated cytotoxicity”.
Consider `[Cl-].[Cl-].[Mn+2].c1ccc(CC2CNCCNCCNCCNCCN2)cc1` (stereo not shown) [Example 6, [Manganese(II)dichloro(2-Phenylmethyl-1,4,7,10,13-pentaazacyclopentadecane)]], for which, in data set [2], the “% Inhibition” value worked out at 48%.
With `C1CCC(CC2CNCCNCCNCCNCCN2)CC1.[Cl-].[Cl-].[Mn+2]` (stereo not shown) [Example 7, [Manganese(II)dichloro(2-Cyclohexylmethyl-1,4,7,10,13-pentaazacyclopentadecane)]], the “% Inhibition” value in data set [2] is given as 77%. Moreover, the “protection” value in data set [3] is “protective against human neutrophil-mediated cytotoxicity”. In data set [4], this molecule registered a half-maximal inhibitory concentration (IC50) of 22 µM.
On to `C1CNCCNCCNCCNCCN1.F[P-](F)(F)(F)(F)F.[Cl][Mn+]` [Example 27, [Manganese(II)chloro(1,4,7,10,13-Pentaazacyclopentadecane)]Hexafluorophosphate], for which, in data set [1], the kCAT came to 2.4e+07 M⁻¹ s⁻¹. The “protection” value in data set [3] was “protective against human neutrophil-mediated cytotoxicity”. The midpoint of inhibition in data set [4], the IC50, lay at 26 µM.
For “[Manganese(II)diacetate(1,4,7,10,13-Pentaazacyclopentadecane)] [Example 8]”, in data set [2], the “% Inhibition” value is listed as 32%. Besides, in data set [3], the “protection” value was “protective against human neutrophil-mediated cytotoxicity”.
For the molecule “[Manganese(II)dichloro((S)-2-Methyl-1,4,7,10,13-pentaazacyclopentadecane)] [Example 3]”, the kCAT in data set [1] is 2.39e+07 M⁻¹ s⁻¹. Further, the “% Inhibition” value in data set [2] was 42%. The “protection” value in data set [3] was “protective against human neutrophil-mediated cytotoxicity”. In data set [4], this molecule registered a 50% inhibitory concentration (IC50) of 37 µM.

A word on the IC50: it is the concentration that gives 50% inhibition. A lower IC50 goes with greater potency.

The record behind these values is patent EP0598753B1, “MANGANESE COMPLEXES OF NITROGEN-CONTAINING MACROCYCLIC LIGANDS EFFECTIVE AS CATALYSTS FOR DISMUTATING SUPEROXIDE” (MONSANTO COMPANY, priority 1991, dated 1993).
